Settings: ambient temperature, after approximately 24 hours, FIG. 6A
Experimental: Samples were taken at approximately 1, 3, 6, and 24 hours, and analyzed by UV spectrophotometry using a SpectraMax M2 UV-VIS spectrophotometer. Wavelength calibration and photometric accuracy were performed using the SpectraMax Pro 5 software as an internal calibration of the instrument. The detector was zeroed with a reference well on a microplate filled with water on which data were obtained, and those data were subtracted from collected data. Samples were analyzed in the UV range at room temperature in the wells of a 96-well quartz plate.

Q: For `CC(/C=C1\SC(=S)N(CC(=O)O)C1=O)=C\c1ccccc1` [choline hydrogen diepalrestat], which “dissolved concentration of epalrestat (solubility in water)” value is on record?
A: 249 µg/mL
